# In ChEMBL document CHEMBL4145665, “Structure-Activity Relationship of Novel and Selective Biaryl-Chroman GPR40 AgoPAMs” (ACS Med Chem Lett, 2018):
# pEC50: −log10 of the molar value.
# Target: T1, Free fatty acid receptor 1 (Homo sapiens, UniProt O14842)
# Test: Agonist activity at recombinant human GPR40 expressed in HEK293 cells assessed as increase in IP1 accumulation measured after 60 mins by HTRF assay
# Format: functional, cell-based
# Conditions: not given
# T1 sequence (O14842 whole entry): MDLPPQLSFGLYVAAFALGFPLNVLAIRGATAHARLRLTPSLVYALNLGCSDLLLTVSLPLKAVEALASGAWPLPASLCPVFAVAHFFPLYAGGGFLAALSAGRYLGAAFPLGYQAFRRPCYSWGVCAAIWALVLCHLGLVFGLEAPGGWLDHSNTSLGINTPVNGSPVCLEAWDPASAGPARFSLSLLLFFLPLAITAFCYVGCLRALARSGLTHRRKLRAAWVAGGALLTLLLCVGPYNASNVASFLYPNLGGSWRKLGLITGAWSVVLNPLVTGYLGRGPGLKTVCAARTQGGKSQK
row,Structure (SMILES),pEC50
1,O=C(O)C[C@H](c1ccc2c(c1)OC(c1ccc(-c3cccc(OC(F)(F)F)c3)cc1)CC2)C1CC1 (mixture of isomers),6.03
2,"O=C(O)C[C@H](c1ccc2c(c1)OC(c1ccc(-c3ccccc3)cc1)CC2)C1CC1 (single isomer, unassigned)",6.88
3,COc1ccc(F)c(-c2ccc(C3CCc4ccc([C@H](C5CC5)[C@H](C)C(=O)O)cc4O3)cc2)c1 (stereo in doubt; 15),8.59
4,COc1ccc(F)c(-c2ccc(C3CCc4ccc([C@H](C5CC5)[C@H](C)C(=O)O)cc4O3)cn2)c1 (stereo in doubt; 18),7.62
5,COc1cc(-c2ccc(C3CCc4ccc([C@H](C5CC5)[C@H](C)C(=O)[O-])cc4O3)c(F)c2)c(F)cn1.[Na+] (stereo in doubt; 26),> 9.70

# Other lines, results leading:
row,pEC50,Structure (SMILES)
1,6.41,O=C(O)C[C@H](c1ccc2c(c1)OC(c1ccc(-c3cccc(O)c3)cc1)CC2)C1CC1 (mixture of isomers)
2,7.64,"COc1cccc(-c2ccc(C3CCc4ccc([C@@H](CC(=O)O)C5CC5)cc4O3)cc2)c1 (single isomer, unassigned)"
3,7.89,COc1ccc(F)c(-c2ccc(C3CCc4ccc([C@H](C5CC5)[C@H](C)C(=O)O)cc4O3)cn2)c1 (stereo in doubt; 19)
4,8.15,COc1ccc(F)c(-c2ccc(C3CCc4ccc([C@@H](CC(=O)O)C5CC5)cc4O3)cc2)c1 (mixture of isomers)
5,> 9.70,COc1cc(-c2ccc(C3CCc4ccc([C@H](C5CC5)[C@H](C)C(=O)[O-])cc4O3)nc2)c(F)cn1.[Na+] (stereo in doubt; 28)
6,8.09,COc1cc(-c2ccc(C3CCc4ccc([C@H](C5CC5)[C@H](C)C(=O)O)cc4O3)c(F)c2)ccn1 (mixture of isomers)
7,> 9.70,COc1cc(-c2ccc(C3CCc4ccc([C@H](C5CC5)[C@H](C)C(=O)[O-])cc4O3)cc2)c(F)cn1.[Na+] (stereo in doubt; 21)
8,9.05,COc1cc(-c2ccc(C3CCc4ccc([C@H](C5CC5)[C@H](C)C(=O)[O-])cc4O3)cc2)c(F)cn1.[Na+] (stereo in doubt; 20)

# Target: T1, Free fatty acid receptor 1
# Test: Agonist activity at recombinant human GPR40 expressed in HEK293 cells assessed as increase in IP1 accumulation measured after 60 mins in presence of 100% human serum by HTRF assay
# Format: functional, cell-based
# Conditions: not given
row,Structure (SMILES),pEC50
1,O=C(O)C[C@H](c1ccc2c(c1)OC(c1ccc(-c3cccc(OC(F)(F)F)c3)cc1)CC2)C1CC1 (mixture of isomers),5.19
2,COc1cccc(-c2ccc(C3CCc4ccc([C@@H](CC(=O)O)C5CC5)cc4O3)cc2)n1 (mixture of isomers),< 5.00
3,"O=C(O)C[C@H](c1ccc2c(c1)OC(c1ccc(-c3ccccc3)cc1)CC2)C1CC1 (single isomer, unassigned)",5.26
4,COc1ccc(F)c(-c2ccc(C3CCc4ccc([C@H](C5CC5)[C@H](C)C(=O)O)cc4O3)cc2)c1 (stereo in doubt; 15),6.90
5,COc1ccc(F)c(-c2ccc(C3CCc4ccc([C@H](C5CC5)[C@H](C)C(=O)O)cc4O3)cn2)c1 (stereo in doubt; 18),5.27
6,COc1cc(-c2ccc(C3CCc4ccc([C@H](C5CC5)[C@H](C)C(=O)[O-])cc4O3)cc2)ccn1.[Na+] (stereo in doubt; 22),6.42
7,COc1cc(-c2ccc(C3CCc4ccc([C@H](C5CC5)[C@H](C)C(=O)[O-])cc4O3)cc2)ccn1.[Na+] (stereo in doubt; 23),6.28
8,COc1cc(-c2ccc(C3CCc4ccc([C@H](C5CC5)[C@H](C)C(=O)[O-])cc4O3)c(F)c2)c(F)cn1.[Na+] (stereo in doubt; 26),7.44
9,COc1cc(-c2ccc(C3CCc4ccc([C@H](C5CC5)[C@H](C)C(=O)[O-])cc4O3)c(F)c2)c(F)cn1.[Na+] (stereo in doubt; 27),6.48
10,COc1cc(-c2cnc(C3CCc4ccc([C@H](C5CC5)[C@H](C)C(=O)O)cc4O3)c(F)c2)c(F)cn1 (stereo in doubt; 30),6.42

# The remaining compounds from weak to strong by pEC50, led by results:
row,pEC50,Structure (SMILES)
1,5.29,CSc1cccc(-c2ccc(C3CCc4ccc([C@@H](CC(=O)O)C5CC5)cc4O3)cc2)c1 (mixture of isomers)
2,5.34,O=C(O)C[C@H](c1ccc2c(c1)OC(c1ccc(-c3cccc(O)c3)cc1)CC2)C1CC1 (mixture of isomers)
3,5.39,"COc1cccc(-c2ccc(C3CCc4ccc([C@@H](CC(=O)O)C5CC5)cc4O3)cc2)c1 (single isomer, unassigned)"
4,5.59,COc1cc(-c2ccc(C3CCc4ccc([C@@H](CC(=O)O)C5CC5)cc4O3)cc2)ccn1 (mixture of isomers)
5,5.61,COc1ccc(F)c(-c2ccc(C3CCc4ccc([C@H](C5CC5)[C@H](C)C(=O)O)cc4O3)cn2)c1 (stereo in doubt; 19)
6,5.91,COc1ccc(F)c(-c2ccc(C3CCc4ccc([C@@H](CC(=O)O)C5CC5)cc4O3)cc2)c1 (mixture of isomers)
7,5.92,COc1cc(-c2ccc(C3CCc4ccc([C@@H](CC(=O)O)C5CC5)cc4O3)cc2)c(F)cn1 (some centres undefined)
8,5.99,COc1cc(-c2ccc(C3CCc4ccc([C@H](C5CC5)[C@H](C)C(=O)[O-])cc4O3)nc2)c(F)cn1.[Na+] (stereo in doubt; 28)
9,6.04,COc1cc(-c2ccc(C3CCc4ccc([C@H](C5CC5)[C@H](C)C(=O)O)cc4O3)c(F)c2)ccn1 (mixture of isomers)
10,6.98,COc1cc(-c2ccc(C3CCc4ccc([C@H](C5CC5)[C@H](C)C(=O)[O-])cc4O3)cc2)c(F)cn1.[Na+] (stereo in doubt; 21)
11,7.18,COc1cc(-c2ccc(C3CCc4ccc([C@H](C5CC5)[C@H](C)C(=O)[O-])cc4O3)cc2)c(F)cn1.[Na+] (stereo in doubt; 20)

# Test system: Rattus norvegicus
# Test: Antidiabetic activity in Sprague-Dawley rat assessed as inhibition of blood glucose AUC at 3 mg/kg, po treated prior to dextrose challenge and measured after 20 to 60 mins by IPGTT relative to control
# Format: functional
# Conditions: not given
row,Structure (SMILES),inhibition (INH)
1,COc1cc(-c2ccc(C3CCc4ccc([C@H](C5CC5)[C@H](C)C(=O)[O-])cc4O3)cc2)c(F)cn1.[Na+] (stereo in doubt; 20),59%
2,COc1cc(-c2ccc(C3CCc4ccc([C@H](C5CC5)[C@H](C)C(=O)[O-])cc4O3)cc2)c(F)cn1.[Na+] (stereo in doubt; 21),88%
3,COc1cc(-c2ccc(C3CCc4ccc([C@H](C5CC5)[C@H](C)C(=O)[O-])cc4O3)cc2)ccn1.[Na+] (stereo in doubt; 22),49%
4,COc1cc(-c2ccc(C3CCc4ccc([C@H](C5CC5)[C@H](C)C(=O)[O-])cc4O3)cc2)ccn1.[Na+] (stereo in doubt; 23),7%
5,COc1cc(-c2ccc(C3CCc4ccc([C@H](C5CC5)[C@H](C)C(=O)[O-])cc4O3)c(F)c2)c(F)cn1.[Na+] (stereo in doubt; 26),72%
6,COc1cc(-c2ccc(C3CCc4ccc([C@H](C5CC5)[C@H](C)C(=O)[O-])cc4O3)c(F)c2)c(F)cn1.[Na+] (stereo in doubt; 27),38%
7,COc1cc(-c2ccc(C3CCc4ccc([C@H](C5CC5)[C@H](C)C(=O)[O-])cc4O3)nc2)c(F)cn1.[Na+] (stereo in doubt; 28),102%

# Same assay, conditions: Rattus norvegicus, Sprague-Dawley, po
row,Structure (SMILES),inhibition in vivo at 3 mg/kg
1,COc1cc(-c2ccc(C3CCc4ccc([C@H](C5CC5)[C@H](C)C(=O)O)cc4O3)c(F)c2)ccn1 (mixture of isomers),84%
2,COc1ccc(F)c(-c2ccc(C3CCc4ccc([C@H](C5CC5)[C@H](C)C(=O)O)cc4O3)cc2)c1 (stereo in doubt; 15),102%

# Target: T1, Free fatty acid receptor 1
# Test: Agonist activity at recombinant human GPR40 expressed in HEK293 cells assessed as increase in IP1 accumulation measured after 60 mins by HTRF assay relative to AM-1638
# Format: functional, cell-based
# Conditions: not given
row,Structure (SMILES),max activation
1,O=C(O)C[C@H](c1ccc2c(c1)OC(c1ccc(-c3cccc(OC(F)(F)F)c3)cc1)CC2)C1CC1 (mixture of isomers),385%
2,COc1cccc(-c2ccc(C3CCc4ccc([C@@H](CC(=O)O)C5CC5)cc4O3)cc2)n1 (mixture of isomers),535%
3,"O=C(O)C[C@H](c1ccc2c(c1)OC(c1ccc(-c3ccccc3)cc1)CC2)C1CC1 (single isomer, unassigned)",452%

# The remaining lines, values ahead:
row,max activation,Structure (SMILES)
1,500%,CSc1cccc(-c2ccc(C3CCc4ccc([C@@H](CC(=O)O)C5CC5)cc4O3)cc2)c1 (mixture of isomers)
2,422%,O=C(O)C[C@H](c1ccc2c(c1)OC(c1ccc(-c3cccc(O)c3)cc1)CC2)C1CC1 (mixture of isomers)
3,394%,"COc1cccc(-c2ccc(C3CCc4ccc([C@@H](CC(=O)O)C5CC5)cc4O3)cc2)c1 (single isomer, unassigned)"
4,401%,COc1cc(-c2ccc(C3CCc4ccc([C@@H](CC(=O)O)C5CC5)cc4O3)cc2)ccn1 (mixture of isomers)
5,359%,COc1ccc(F)c(-c2ccc(C3CCc4ccc([C@@H](CC(=O)O)C5CC5)cc4O3)cc2)c1 (mixture of isomers)
6,460%,COc1cc(-c2ccc(C3CCc4ccc([C@@H](CC(=O)O)C5CC5)cc4O3)cc2)c(F)cn1 (some centres undefined)
7,> 179%,COc1cc(-c2ccc(C3CCc4ccc([C@H](C5CC5)[C@H](C)C(=O)O)cc4O3)c(F)c2)ccn1 (mixture of isomers)

# Target: T1, Free fatty acid receptor 1
# Test: Agonist activity at recombinant human GPR40 expressed in HEK293 cells assessed as increase in IP1 accumulation measured after 60 mins in presence of 100% human serum by HTRF assay relative to AM-1638
# Format: functional, cell-based
# Conditions: not given
row,Structure (SMILES),max activation
1,O=C(O)C[C@H](c1ccc2c(c1)OC(c1ccc(-c3cccc(OC(F)(F)F)c3)cc1)CC2)C1CC1 (mixture of isomers),73%
2,COc1cccc(-c2ccc(C3CCc4ccc([C@@H](CC(=O)O)C5CC5)cc4O3)cc2)n1 (mixture of isomers),2.4%
3,"O=C(O)C[C@H](c1ccc2c(c1)OC(c1ccc(-c3ccccc3)cc1)CC2)C1CC1 (single isomer, unassigned)",57%

# Continued, values first:
row,max activation,Structure (SMILES)
1,144%,CSc1cccc(-c2ccc(C3CCc4ccc([C@@H](CC(=O)O)C5CC5)cc4O3)cc2)c1 (mixture of isomers)
2,231%,O=C(O)C[C@H](c1ccc2c(c1)OC(c1ccc(-c3cccc(O)c3)cc1)CC2)C1CC1 (mixture of isomers)
3,223%,"COc1cccc(-c2ccc(C3CCc4ccc([C@@H](CC(=O)O)C5CC5)cc4O3)cc2)c1 (single isomer, unassigned)"
4,229%,COc1cc(-c2ccc(C3CCc4ccc([C@@H](CC(=O)O)C5CC5)cc4O3)cc2)ccn1 (mixture of isomers)
5,188%,COc1ccc(F)c(-c2ccc(C3CCc4ccc([C@@H](CC(=O)O)C5CC5)cc4O3)cc2)c1 (mixture of isomers)
6,224%,COc1cc(-c2ccc(C3CCc4ccc([C@@H](CC(=O)O)C5CC5)cc4O3)cc2)c(F)cn1 (some centres undefined)
7,> 179%,COc1cc(-c2ccc(C3CCc4ccc([C@H](C5CC5)[C@H](C)C(=O)O)cc4O3)c(F)c2)ccn1 (mixture of isomers)

# Test system: not listed separately
# Test: Lipophilicity, log D of the compound at pH 7 at 100 uM by HPLC method
# Format: physicochemical
# Conditions: buffer
row,Structure (SMILES),logD at 100 µM
1,COc1ccc(F)c(-c2ccc(C3CCc4ccc([C@H](C5CC5)[C@H](C)C(=O)O)cc4O3)cn2)c1 (stereo in doubt; 18),2.29
2,COc1cc(-c2ccc(C3CCc4ccc([C@H](C5CC5)[C@H](C)C(=O)[O-])cc4O3)cc2)c(F)cn1.[Na+] (stereo in doubt; 20),2.68
3,COc1cc(-c2ccc(C3CCc4ccc([C@H](C5CC5)[C@H](C)C(=O)[O-])cc4O3)cc2)ccn1.[Na+] (stereo in doubt; 22),2.3
4,COc1cc(-c2ccc(C3CCc4ccc([C@H](C5CC5)[C@H](C)C(=O)[O-])cc4O3)c(F)c2)c(F)cn1.[Na+] (stereo in doubt; 26),2.97
5,COc1cc(-c2ccc(C3CCc4ccc([C@H](C5CC5)[C@H](C)C(=O)[O-])cc4O3)nc2)c(F)cn1.[Na+] (stereo in doubt; 28),1.98
6,COc1cc(-c2cnc(C3CCc4ccc([C@H](C5CC5)[C@H](C)C(=O)O)cc4O3)c(F)c2)c(F)cn1 (stereo in doubt; 30),2.36
